{
  "source": "patent US20080166753A1",
  "about": "“Microbial Growth Assay” (University Technologies International Inc., priority 2004, published 2008)",
  "key": {"[1]": {"test_system": "P. aeruginosa mutant strain TTD2 biofilm", "assay": "Biofilm killing assessed by XTT absorbance, mutant strain TTD2", "format": "cell-based", "details": "strain TTD2 (contains gentamicin cassette), 48 h biofilm", "protocol": "(§1) Biofilm Growth Conditions. Isolates were propagated in Mueller-Hinton broth (MHB). Flasks containing liquid medium (20 ml) were inoculated with a loopful of cells from MHB agar plates containing freshly grown isolates, and incubated overnight in an orbital shaker (100 rpm) at 37° C. Cells were harvested and resuspended in MHB at a cellular density equivalent to 1.0×10^6 cells per milliliter. Biofilms were formed on the pegs of the Calgary Biofilm Device (CBD; MBE™ Biofilm Technologies, Ltd., Edmonton AB), described in Ceri et al. (Ceri et al., J. Clin. Microbiol., 37(6):1771-6, 1999). The device consists of 96 conical pegs attached to a plastic lid. […]\n(§2) Optimizing XTT Assay. In order to optimize the quantities of 2,3-bis[2-methyloxy-4-nitro-5-sulfophenyl]-2H-tetrazolium-5-carboxanilide (XTT; Sigma) and menadione required for quantifying biofilm metabolic activity, varying concentrations were tested. […] The concentration of menadione (2-methyl-1,4-naphthoquinone; Sigma), the electron-coupling agent, was varied to establish the optimal molarity in respect to maximal absorbance readings. […] The change in XTT absorbance at 490 nm was assessed spectrophotometerically using an automated microtiter plate reader. It was determined that 75 μM gave the optimal change in absorbance after 2 h (FIG. 7). […]\n(§3) Assessment of Biofilm Killing Kinetics Using XTT. […] XTT absorbance readings were taken at 2 h and then at 24 h. […]"}, "[2]": {"test_system": "P. aeruginosa mutant strain 4G6 biofilm", "assay": "Biofilm killing assessed by XTT absorbance, mutant strain 4G6", "format": "cell-based", "details": "strain 4G6 (contains gentamicin cassette), 48 h biofilm", "protocol": "as §1, §2, §3"}},
  "note": "“Also recorded” adds a separate entry of the source.",
  "data": [
    {"substance": "gentamicin", "values": [
      {"measurement": "Susceptibility as assessed by XTT absorbance", "setting": "[1]", "result": "less susceptible; also recorded: decreased susceptibility"},
      {"measurement": "Susceptibility as assessed by XTT absorbance", "setting": "[2]", "result": "less susceptible; also recorded: decreased susceptibility"}
    ]}
  ]
}
